Measurements published in patent US9040250B2, “Binding interaction of proanthocyanidins with bacteria and bacterial components” (The United States of America, as represented by the …, priority 2006, dated 2015).
Read-outs that look alike come from different tables or passages of the source.

What was measured:
[1] = tested on: HEK 293 cells stably expressing human CD14 and TLR4/MD2; assay: LPS membrane binding in HEK-CD14-TLR4/MD2 cells; format: cell-based; settings: 25 nM LPS, 1.5 h 37° C.; 0.5 μM PAC; antibodies 500 nM in binding sites
Protocol: (§1) Analysis of LPS membrane binding and endocytosis. Human embryonic kidney cells (HEK 293) stably expressing human CD14 and TLR4/MD2 (HEK-CD14-TLR4/MD2; Invivogen) were grown in chambered wells and incubated with 25 nM LPS (E. coli serotype O55:B5, Sigma) in the absence or presence of 0.5 μM LH20 PAC (Dial>6K) for 1.5 h at 37° C. […] After incubation, the cells were washed with PBS (10 min) twice and either fixed (with 3.7% paraformaldehyde) to assess LPS membrane binding or fixed and permeabilized (with 0.1% Triton X-100) to determine LPS internalization. After blocking with 1% normal goat serum, membrane bound or internalized LPS was detected using a goat anti-LPS antibody (O/K serotype-specific, Abcam) conjugated to fluorescein. Nuclei were counterstained with DAPI. Imaging was performed using an Olympus IX-71 microscope. The relative amounts of membrane-associated or intracellular fluorescence were quantified by image analysis using Image J software (NIH, v. 1.37). Data is reported as the mean channel fluorescence from membrane-associated or internalized LPS and represents the analysis of 10 to 20 cells from each sample (minimum 10 measurements per each cell). Merged images were produced using Photoshop CS2 (ver. 9).

[2] = tested on: HEK 293 cells stably expressing human CD14 and TLR4/MD2; assay: LPS endocytosis (internalization) in HEK-CD14-TLR4/MD2 cells; format: cell-based; settings: 25 nM LPS, 1.5 h 37° C.; 0.5 μM PAC; antibodies 500 nM in binding sites
Protocol: as §1

HEK-CD14-TLR4/MD2 cells = assay: Cytotoxicity, CellTiter96 cell proliferation assay; format: cell-based, human; settings: 48 h culture
Protocol: Cytotoxicity assays—Cellular toxicity was measured using a calorimetric cell proliferation assay (CellTiter96™, Promega). HEK-CD14-TLR4/MD2 cells were seeded into the wells of a 96-well plate (1×10^4 cells/well) and cultured with a dose range of test compounds for 48 h prior to assay according to the manufacturer's instructions.

[3] = tested on: FITC-labeled LPS (from E. coli 055:B5); assay: Fluorescence-based pull down assay of FITC-LPS with Sepharose-immobilized PACs; format: binding, Escherichia coli; settings: for IC50: PAC beads equilibrated with lipid A, 3 μg/mL FITC-LPS (approx. 3 nM)
Protocol: PAC and catechin immobilization—Purified PACs and catechin (Sigma-Aldrich) were immobilized onto activated thiol-Sepharose® 4B (Sigma-Aldrich) via a (N-[p-maleimidophenyl]isocyanate) (PMPI; Pierce) crosslinker. Sepharose® was swelled in deionized water for 1 hour (1 g dry material in 15 mL H2O). The material was then washed using fresh dI-H2O over five suspend/centrifuge/decant cycles (total 50 mL per gram dry starting material). Suspension was accomplished using a vortex and centrifuge steps were conducted at 3,000 g for five minutes. The Sepharose® material (total volume 5 mL per gram starting material) was then rinsed three times with ethanol (total volume 30 mL per gram starting material). The PMPI crosslinker was incubated with the rinsed Sepharose material for 1 hour at room temperature under constant agitation using a 10-fold molar excess of PMPI over the thiol-group concentration with 3% dimethylsulfoxide in ethanol (10 mL per gram starting material). Incubation was followed by centrifuging, decanting, and rinsing in 50% ethanol for three cycles. The Sepharose was then incubated overnight at 4° C. in ethanol with PAC or catechin using a 10-fold molar excess of analyte in 50% ethanol (10 mL per gram starting material). As a final step, the Sepharose was rinsed over four cycles using 50% ethanol (40 mL total per gram starting material) and resuspended in 0.02% sodium azide in H2O (16 mL final volume per gram starting material). The materials were stored in the dark at 4° C. until use. PAC concentrations for bead sets were determined by Prussian blue assay.
Fluorescence-based pull down assays for lipopolysaccharide (LPS) were conducted in 50 mM TRIS at pH 8.0 using Sepharose-immobilized PACs and agarose-immobilized polymyxin B (Sigma-Aldrich, St. Louis, Mo.). […] The fluorescence of the FITC-labeled LPS (from E. coli 055:B5; Sigma-Aldrich) was measured using a Tecan XSafire monochrometer-based micro plate reader at 495 nm excitation and 520 nm emission (5 nm bandwidths). […]

[4] = tested on: LPS-FITC (E. coli 055:B5); assay: LPS-FITC binding by PACs immobilized on glass waveguide (stationary assay); set-up: species or system Escherichia coli; settings: patterned at 10 mg/mL via PMPI; LPS-FITC 1 hour
Description: Immobilization of PACs and LPS binding assay—To determine the ability of PAC materials to effectively bind bacteria and bacterial cell components upon immobilization to a solid support, PACs from cranberry and grape juices were covalently attached to the surface of a glass microscope slide (waveguide) using a modification of a common technique used for protein immobilization (Rowe et al., Anal. Chem., 71, 3846 (1999)). Catechin monomer and buffer only areas were also included as controls. Briefly, the waveguides, glass microscope slides (Daigger, Wheeling, Ill.), were cleaned by immersion in potassium hydroxide/methanol solution (Cras et al., Biosens. Bioelectron., 14, 683 (1999)) followed by rinsing and drying. The clean waveguides were then incubated with 2% (3-mercaptopropyl)triethoxysilane (Pierce Chemicals, Rockford, Ill.) in toluene for 45 minutes followed by rinsing and drying. The slides were immersed in 1.8 mM N-[p-maleimidophenyl]isocyanate (PMPI) in ethanol for 1 hour. The maleimide-group of PMPI reacts with the sulfhydryl-group provided by the silane reaction leaving the isocyanate-group free to react with the hydroxyl-groups of PACs. […] Slides were imaged using evanescent wave fluorescence spectroscopy with excitation at 496 nm and emission collected above 515 nm. […]

Row | Substance | decrease in membrane-bound LPS (LPS binding inhibition) [1] | inhibition of LPS endocytosis [2] [%] | concentrations at which no toxicity was elicited (HEK-CD14-TLR4/MD2 cells) | IC50 ([3]; read-out: IC50, inhibition of FITC-LPS binding by immobilized PACs from cranberries) [nM] | IC50 ([3]; read-out: IC50, inhibition of FITC-LPS binding by immobilized PACs from tea) [nM] | inhibition of FITC-LPS binding by immobilized PACs at high lipid A concentration ([3]; lipid A concentrations as high as 100 μM) [%] | binding of LPS-FITC by material immobilized on waveguide [4]
1 | diphosphoryl lipid A | did not significantly reduce LPS membrane binding | 84 | below 3 μM | 500 | 100 | ≤ 80 | 
2 | catechin |  |  |  |  |  |  | no binding even at the highest concentrations tested
